Experiments:
Type in all cases: in vivo
[1] = tested on: southern crabgrass (Digitaria ciliaris); test: Soil treatment test for upland field (Test Example 2): southern crabgrass; conditions: soil treatment before germination, examined after 3 weeks
From the text: (§1) Evaluation of the herbicidal effect is shown in the following six grades, by comparing the condition of untreated control and growth inhibition (%): • 0: 0%-less than 20% • 1: 20%-less than 40% • 2: 40%-less than 60% • 3: 60%-less than 80% • 4: 80%-less than 100% • 5: 100%.
(§2) Upland field soil was filled in 1/3,000 are pots, seeded with southern crabgrass (Digitaria ciliaris), common lambsquaters (Chenopodium album), slender amaranth (Amaranthus viridis), common purslane (Portulaca oleracea), velvetleaf (Abutilon theophrasti), wheat, corn and soybean. The seeds were covered up with the soil.
(§3) Wettable powders containing the object compounds (1) as identified in Table 1, which were formulated following Preparation Example 2, were diluted with adequate amount of water to secure the prescribed dose of the active ingredient, and uniformly sprayed onto the surface soil layer after the seeding and before germination of the weeds, at an application water of 15 liters per are.
(§4) After placing the test pots in a glasshouse which was kept at an average temperature of 25° C. for 3 weeks, the herbicidal effect was examined.
(§5) Evaluations of the herbicidal effect and phytotoxicity were made in the manner similar to those in the above Test Example 1.

[2] = tested on: common lambsquaters (Chenopodium album); test: Soil treatment test for upland field (Test Example 2): common lambsquaters; conditions: soil treatment before germination, examined after 3 weeks
From the text: as §1, §2, §3, §4, §5

[3] = tested on: slender amaranth (Amaranthus viridis); test: Soil treatment test for upland field (Test Example 2): slender amaranth; conditions: soil treatment before germination, examined after 3 weeks
From the text: as §1, §2, §3, §4, §5

[4] = tested on: common purslane (Portulaca oleracea); test: Soil treatment test for upland field (Test Example 2): common purslane; conditions: soil treatment before germination, examined after 3 weeks
From the text: as §1, §2, §3, §4, §5

[5] = tested on: velvetleaf (Abutilon theophrasti); test: Soil treatment test for upland field (Test Example 2): velvetleaf; conditions: soil treatment before germination, examined after 3 weeks
From the text: as §1, §2, §3, §4, §5

wheat [6] = test: Soil treatment test for upland field (Test Example 2): phytotoxicity to wheat; conditions: soil treatment before germination, examined after 3 weeks
From the text: (§6) Evaluation of phytotoxicity is shown in the following six grades, as compared with the condition of untreated control: • 0: normal growth • 1: little damaged • 2: low damaged • 3: medium damaged • 4: serious damaged • 5: complete killed.
as §2, §4

corn [7] = test: Soil treatment test for upland field (Test Example 2): phytotoxicity to corn; conditions: soil treatment before germination, examined after 3 weeks
From the text: as §6, §2, §4

soybean [8] = test: Soil treatment test for upland field (Test Example 2): phytotoxicity to soybean; conditions: soil treatment before germination, examined after 3 weeks
From the text: as §6, §2, §4

southern crabgrass = test: Foliage treatment test for upland field (Test Example 3): southern crabgrass; conditions: foliage treatment at 1.0-2.0 leaf stage of southern crabgrass, examined after 3 weeks
From the text: as §1
(§7) Compost mixed soil was filled in 1/3,000 are pots, seeded with southern crabgrass, common lambsquaters, slender amaranth, common purslane, velvetleaf, wheat, corn and soybean. The seeds were covered up with the soil and cultured in a glasshouse kept at 25° C. on the average.
(§8) Wettable powders containing the object compounds (1) as identified in Table 1, which were formulated following Preparation Example 2, were diluted with water to the prescribed dose of the active ingredient, and uniformly sprayed onto the weeds at 1.0-2.0 leaf stage of the southern crabgrass at an application water of 15 liters per are.
(§9) After placing the test pots in a grasshouse kept at 25° C. on the average for 3 weeks, the herbicidal effect was examined.
(§10) Evaluation of the herbicidal effect was conducted in the similar manner to Test Example 1.

common lambsquaters = test: Foliage treatment test for upland field (Test Example 3): common lambsquaters; conditions: foliage treatment at 1.0-2.0 leaf stage of southern crabgrass, examined after 3 weeks
From the text: as §1, §7, §8, §9, §10

slender amaranth = test: Foliage treatment test for upland field (Test Example 3): slender amaranth; conditions: foliage treatment at 1.0-2.0 leaf stage of southern crabgrass, examined after 3 weeks
From the text: as §1, §7, §8, §9, §10

common purslane = test: Foliage treatment test for upland field (Test Example 3): common purslane; conditions: foliage treatment at 1.0-2.0 leaf stage of southern crabgrass, examined after 3 weeks
From the text: as §1, §7, §8, §9, §10

velvetleaf = test: Foliage treatment test for upland field (Test Example 3): velvetleaf; conditions: foliage treatment at 1.0-2.0 leaf stage of southern crabgrass, examined after 3 weeks
From the text: as §1, §7, §8, §9, §10

wheat [9] = test: Foliage treatment test for upland field (Test Example 3): phytotoxicity to wheat; conditions: foliage treatment at 1.0-2.0 leaf stage of southern crabgrass, examined after 3 weeks
Protocol: as §6, §7, §9

corn [10] = test: Foliage treatment test for upland field (Test Example 3): phytotoxicity to corn; conditions: foliage treatment at 1.0-2.0 leaf stage of southern crabgrass, examined after 3 weeks
Protocol: as §6, §7, §9

soybean [11] = test: Foliage treatment test for upland field (Test Example 3): phytotoxicity to soybean; conditions: foliage treatment at 1.0-2.0 leaf stage of southern crabgrass, examined after 3 weeks
Protocol: as §6, §7, §9

Structure (SMILES) | Herbicidal Effect southern crabgrass ([1]; dose 2.5 g ai/a) | Herbicidal Effect southern crabgrass ([1]; dose 5 g ai/a) | Herbicidal Effect common lambsquaters ([2]; dose 2.5 g ai/a) | Herbicidal Effect common lambsquaters ([2]; dose 5 g ai/a) | Herbicidal Effect slender amaranth ([3]; dose 2.5 g ai/a) | Herbicidal Effect slender amaranth ([3]; dose 5 g ai/a) | Herbicidal Effect common purslane ([4]; dose 2.5 g ai/a) | Herbicidal Effect common purslane ([4]; dose 5 g ai/a) | Herbicidal Effect velvetleaf ([5]; dose 2.5 g ai/a) | Herbicidal Effect velvetleaf ([5]; dose 5 g ai/a) | Phytotoxicity wheat (wheat [6]; dose 2.5 g ai/a) | Phytotoxicity wheat (wheat [6]; dose 5 g ai/a) | Phytotoxicity corn (corn [7]; dose 2.5 g ai/a) | Phytotoxicity corn (corn [7]; dose 5 g ai/a) | Phytotoxicity soybean (soybean [8]; dose 2.5 g ai/a) | Phytotoxicity soybean (soybean [8]; dose 5 g ai/a) | Herbicidal Effect southern crabgrass (southern crabgrass; dose 2.5 g ai/a) | Herbicidal Effect southern crabgrass (southern crabgrass; dose 5 g ai/a) | Herbicidal Effect Common lambsquatters (common lambsquaters; dose 2.5 g ai/a) | Herbicidal Effect Common lambsquatters (common lambsquaters; dose 5 g ai/a) | further results
CCSCC(=Cc1cccc(C(F)(F)F)c1)c1nc2cc(C(F)(F)F)ccc2o1 [Compound 84] | 3 (60%-less than 80%) | 3 (60%-less than 80%) | 5 (100%) | 5 (100%) | 4 (80%-less than 100%) | 5 (100%) | 5 (100%) | 5 (100%) | 2 (40%-less than 60%) | 2 (40%-less than 60%) | 0 | 0 | 0 | 0 | 0 | 0 | 4 (80%-less than 100%) | 4 (80%-less than 100%) | 4 (80%-less than 100%) | 5 (100%) | Herbicidal Effect slender amaranth (slender amaranth; dose 2.5 g ai/a): 5 (100%); Herbicidal Effect slender amaranth (slender amaranth; dose 5 g ai/a): 5 (100%); Herbicidal Effect common purslane (common purslane; dose 2.5 g ai/a): 4 (80%-less than 100%); Herbicidal Effect common purslane (common purslane; dose 5 g ai/a): 5 (100%); Herbicidal Effect velvetleaf (velvetleaf; dose 2.5 g ai/a): 2 (40%-less than 60%); Herbicidal Effect velvetleaf (velvetleaf; dose 5 g ai/a): 3 (60%-less than 80%); Phytotoxicity wheat (wheat [9]; dose 2.5 g ai/a): 0; Phytotoxicity wheat (wheat [9]; dose 5 g ai/a): 0; Phytotoxicity corn (corn [10]; dose 2.5 g ai/a): 0; Phytotoxicity corn (corn [10]; dose 5 g ai/a): 1; Phytotoxicity soybean (soybean [11]; dose 2.5 g ai/a): 0; Phytotoxicity soybean (soybean [11]; dose 5 g ai/a): 0
FC(F)C(F)(F)COCC(=Cc1cccc(C(F)(F)F)c1)c1nc2cc(C(F)(F)F)ccc2o1 [Compound 87] | 4 (80%-less than 100%) | 5 (100%) | 5 (100%) | 5 (100%) | 5 (100%) | 5 (100%) | 5 (100%) | 5 (100%) | 4 (80%-less than 100%) | 5 (100%) | 0 | 1 | 0 | 0 | 0 | 1 | 4 (80%-less than 100%) | 5 (100%) | 5 (100%) | 5 (100%) | Herbicidal Effect slender amaranth (slender amaranth; dose 2.5 g ai/a): 5 (100%); Herbicidal Effect slender amaranth (slender amaranth; dose 5 g ai/a): 5 (100%); Herbicidal Effect common purslane (common purslane; dose 2.5 g ai/a): 5 (100%); Herbicidal Effect common purslane (common purslane; dose 5 g ai/a): 5 (100%); Herbicidal Effect velvetleaf (velvetleaf; dose 2.5 g ai/a): 4 (80%-less than 100%); Herbicidal Effect velvetleaf (velvetleaf; dose 5 g ai/a): 5 (100%); Phytotoxicity wheat (wheat [9]; dose 2.5 g ai/a): 0; Phytotoxicity wheat (wheat [9]; dose 5 g ai/a): 1; Phytotoxicity corn (corn [10]; dose 2.5 g ai/a): 0; Phytotoxicity corn (corn [10]; dose 5 g ai/a): 1; Phytotoxicity soybean (soybean [11]; dose 2.5 g ai/a): 1; Phytotoxicity soybean (soybean [11]; dose 5 g ai/a): 1

Source: patent US20080058213A1, “Benzoxazole Compounds” (priority 2004, published 2008)
